≈ marks a conversion by molar mass, not a printed value.
Columns and labels:
[1] = previously reported; ref 14b; cited from earlier work
[2] = test system: monocytes, MSCs, or mature osteoclasts; settings: even at a concentration of 10 μM; ref manuscript submitted; cited from earlier work
[3] = previously reported; ref 14b; cited from earlier work; remark: listed apart in the source
[4] = test system: osteoclastogenesis; test: In vitro osteoclast differentiation assay; assay type: cell-based, mice; settings: 10 μM inhibitor, rM-CSF and RANKL, 5–7 d
[5] = previously reported; ref 14b; cited from earlier work; remark: listed apart in the source
[6] = ref 14b, cited from earlier work
[7] = test system: MDA-MB-231 breast cancer xenograft; settings: cited from earlier work
[8] = cited from earlier work

Structure (SMILES) | Human microsome half-life [1] | Toxicity towards monocytes, MSCs, or mature osteoclasts [2] | Rat microsome half-life [3] | Osteoclastogenesis level compared with control [4] | Mouse microsome half-life [5] | Solubility ([6]; converted from […] with MW 499.17 g/mol) | Solubility class in words ([6]; poor defined as <10 μg/mL or <20 μM) | MDA-MB-231 breast cancer xenograft growth [7] | Osteolytic damage ([7]; in vivo prevention study) | Creatine kinase (measure of muscle toxicity) [8]
CNC(=O)[C@@H](NC(=O)c1ccc(-c2ccc(CSc3nc4c(c(=O)[nH]3)CCC4)c(F)c2)o1)C(C)C [RF036] | 12 min | not due to the compound being toxic | 9 min | 24% | 20 min | 7.74 µg/mL (≈ 15.5 µM) | poor solubility | – | – | –
COCCC1(Oc2ccc(Oc3ccc(-c4nc(-c5ccc(F)cc5)co4)cc3)cc2)C(=O)NC(=O)NC1=O [compound 28, 5-(4-{4-[4-(4-fluorophenyl)-1,3-oxazol-2-yl]phenoxy}phenoxy)-5-(2-methoxyethyl)-pyrimidine-2,4,6 (1H,3H,5H)-trione] | – | – | – | – | – | – | – | inhibited MDA-MB-231 breast cancer xenograft growth | significantly reduced osteolytic damage | did not cause an increase in creatine kinase
